The values below come from ChEMBL document CHEMBL4732252, “Generating Selective Leads for Mer Kinase Inhibitors-Example of a Comprehensive Lead-Generation Strategy” (J Med Chem, 2021).

In data set [1] the target is T1, Tyrosine-protein kinase receptor UFO (Homo sapiens, UniProt P30530).
T1 sequence (P30530 whole entry): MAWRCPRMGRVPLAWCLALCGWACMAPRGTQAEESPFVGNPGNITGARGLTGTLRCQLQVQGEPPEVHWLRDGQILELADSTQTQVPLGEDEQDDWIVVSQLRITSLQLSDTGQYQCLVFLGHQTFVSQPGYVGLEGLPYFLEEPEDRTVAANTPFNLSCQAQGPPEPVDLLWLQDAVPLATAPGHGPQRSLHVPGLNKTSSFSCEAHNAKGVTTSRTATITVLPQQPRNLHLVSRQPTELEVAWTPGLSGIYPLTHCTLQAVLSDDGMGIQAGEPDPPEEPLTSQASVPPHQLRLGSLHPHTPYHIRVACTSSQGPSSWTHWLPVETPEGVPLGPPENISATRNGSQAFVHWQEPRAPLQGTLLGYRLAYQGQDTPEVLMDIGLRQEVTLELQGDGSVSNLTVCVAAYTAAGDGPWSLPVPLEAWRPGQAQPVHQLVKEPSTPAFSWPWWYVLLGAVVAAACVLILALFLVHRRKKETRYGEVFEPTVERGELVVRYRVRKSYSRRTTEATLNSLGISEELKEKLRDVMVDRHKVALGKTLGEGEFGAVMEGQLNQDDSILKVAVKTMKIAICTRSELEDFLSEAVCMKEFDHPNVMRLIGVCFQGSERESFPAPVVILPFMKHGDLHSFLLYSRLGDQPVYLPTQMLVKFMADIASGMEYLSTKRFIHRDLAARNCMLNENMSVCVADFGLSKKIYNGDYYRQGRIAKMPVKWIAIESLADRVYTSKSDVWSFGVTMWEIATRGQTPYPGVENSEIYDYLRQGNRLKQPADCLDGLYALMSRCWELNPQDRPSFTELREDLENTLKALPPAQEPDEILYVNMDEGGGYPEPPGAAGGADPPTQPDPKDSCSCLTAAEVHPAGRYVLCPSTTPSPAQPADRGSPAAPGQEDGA
Description: Inhibition of GST-tagged AXL (unknown origin) ([…] residues) using Axltide (CKKSRGDYMTMQJG-acid) peptide as substrate preincubated for 30 mins followed by substrate and ATP addition at Km concentration measured after 180 mins by RapidFire LC-MS analysis.

Data set [2] concerns the target T2, Tyrosine-protein kinase Mer (Homo sapiens, UniProt Q12866).
T2 sequence (Q12866 whole entry): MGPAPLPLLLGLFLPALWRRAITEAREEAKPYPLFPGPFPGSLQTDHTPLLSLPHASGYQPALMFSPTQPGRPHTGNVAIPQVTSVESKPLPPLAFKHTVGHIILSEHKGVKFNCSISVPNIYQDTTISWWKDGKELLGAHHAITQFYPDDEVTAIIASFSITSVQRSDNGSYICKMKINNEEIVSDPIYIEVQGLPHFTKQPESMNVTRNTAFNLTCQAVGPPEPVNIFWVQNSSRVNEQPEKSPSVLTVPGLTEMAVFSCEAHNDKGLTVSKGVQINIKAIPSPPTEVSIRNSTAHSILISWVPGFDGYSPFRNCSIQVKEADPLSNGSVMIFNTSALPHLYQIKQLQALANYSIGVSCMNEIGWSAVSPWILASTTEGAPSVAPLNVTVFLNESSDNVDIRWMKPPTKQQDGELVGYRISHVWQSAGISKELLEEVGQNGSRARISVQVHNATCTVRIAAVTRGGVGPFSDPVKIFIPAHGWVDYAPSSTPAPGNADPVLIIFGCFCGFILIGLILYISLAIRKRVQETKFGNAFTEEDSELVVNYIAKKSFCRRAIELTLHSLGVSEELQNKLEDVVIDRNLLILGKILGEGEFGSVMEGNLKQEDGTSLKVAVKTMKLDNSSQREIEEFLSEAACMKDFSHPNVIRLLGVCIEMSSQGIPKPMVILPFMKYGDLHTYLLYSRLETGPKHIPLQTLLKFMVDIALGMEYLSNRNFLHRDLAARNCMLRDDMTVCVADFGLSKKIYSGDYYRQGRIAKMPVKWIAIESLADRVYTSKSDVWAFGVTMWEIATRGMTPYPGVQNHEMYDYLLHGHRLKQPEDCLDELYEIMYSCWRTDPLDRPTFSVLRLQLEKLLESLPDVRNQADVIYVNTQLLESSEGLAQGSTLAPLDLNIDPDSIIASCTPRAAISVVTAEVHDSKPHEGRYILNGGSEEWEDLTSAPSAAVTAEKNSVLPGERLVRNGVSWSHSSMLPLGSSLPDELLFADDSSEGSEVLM
The experiment in a line: Inhibition of 6His/thrombin cleavage site-fused Avi-tagged dephosphorylated MER (unknown origin) (R528 to M999 residues) using Axltide (CKKSRGDYMTMQJG-acid) peptide as substrate preincubated for 30 mins followed by substrate and ATP addition at Km concentration measured after 120 mins by RapidFire LC-MS analysis.

The target in data set [3] is T3, Tyrosine-protein kinase receptor TYRO3 (Homo sapiens, UniProt Q06418).
T3 sequence (Q06418 whole entry): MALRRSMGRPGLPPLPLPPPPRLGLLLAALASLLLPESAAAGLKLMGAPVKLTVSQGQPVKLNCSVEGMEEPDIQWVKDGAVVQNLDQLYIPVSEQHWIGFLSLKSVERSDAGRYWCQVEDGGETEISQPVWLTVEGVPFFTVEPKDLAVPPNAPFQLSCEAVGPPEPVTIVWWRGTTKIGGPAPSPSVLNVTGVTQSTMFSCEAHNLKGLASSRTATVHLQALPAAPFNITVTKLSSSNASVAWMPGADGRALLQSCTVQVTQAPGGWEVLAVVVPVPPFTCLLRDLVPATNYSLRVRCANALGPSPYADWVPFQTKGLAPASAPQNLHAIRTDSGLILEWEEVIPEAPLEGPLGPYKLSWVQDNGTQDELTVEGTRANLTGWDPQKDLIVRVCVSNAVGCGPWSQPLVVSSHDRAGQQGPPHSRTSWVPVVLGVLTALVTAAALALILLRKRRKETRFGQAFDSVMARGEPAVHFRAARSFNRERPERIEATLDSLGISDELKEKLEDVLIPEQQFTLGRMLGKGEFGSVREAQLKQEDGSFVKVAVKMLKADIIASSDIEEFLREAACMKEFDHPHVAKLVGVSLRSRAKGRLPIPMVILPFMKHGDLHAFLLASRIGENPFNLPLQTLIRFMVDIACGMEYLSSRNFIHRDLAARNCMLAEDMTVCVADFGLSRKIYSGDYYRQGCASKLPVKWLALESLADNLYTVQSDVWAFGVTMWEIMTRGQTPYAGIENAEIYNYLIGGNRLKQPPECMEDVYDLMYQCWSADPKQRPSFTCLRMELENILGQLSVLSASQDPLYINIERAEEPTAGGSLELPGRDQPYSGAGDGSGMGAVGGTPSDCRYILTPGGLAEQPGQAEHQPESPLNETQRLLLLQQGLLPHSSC
Description: Inhibition of GST-tagged Tyro3 (unknown origin) (453 to 890 residues) using Axltide (KKSRGDYMTMQIG-acid) peptide as substrate preincubated for 30 mins followed by substrate and ATP addition at Km concentration measured after 180 mins by RapidFire LC-MS analysis.

Data set [4] in a line: Distribution coefficient, logD of compound at pH 7.4. The following applies: octanol/water. In kind it is physicochemical.

Regarding `CNC(=O)c1sc(N2CC3CC2(CNC(=O)c2c[nH]c4ncc(C)cc24)C3)nc1C(F)(F)F`, the values for the 50% inhibitory concentration (IC50) in data set [1], in data set [2] and in data set [3] were 3.98 nM, 12.6 nM and 1000 nM, respectively. Moreover, in data set [4], the logD came to 3.5.

Take `CN(Cc1ccc2nccn2c1)c1nnc(-c2ccc(OC3CCCC3)cc2)o1`: the concentration for half-maximal inhibition (IC50) is 3980 nM in data set [1], 100 nM in data set [2] and 79400 nM in data set [3]. Also, the logD in data set [4] was 4.1.

On to `CN(Cc1ccc2c(c1)CCCO2)c1nnc(-c2ccc(-c3ccccc3Cl)cc2)o1`, for which the IC50 in data set [1] was 398 nM; in data set [2], 25.1 nM; in data set [3], over 100000 nM. The compound also showed a log distribution coefficient (logD) in data set [4] of over 5.6.

As to `CN(Cc1ccc2nccn2c1)c1nnc(-c2ccc(-c3ccccc3Cl)nc2)o1`, the IC50 in data set [1] was 3160 nM; in data set [2], 126 nM; in data set [3], 20000 nM. In data set [4], this compound came in with a pH-dependent lipophilicity (logD) of 3.3.

On to `CN(Cc1ccc2nccn2c1)c1nnc(-c2ccc(-c3ccccc3Cl)cc2)o1`, for which the figures for the concentration for half-maximal inhibition (IC50) in data set [1], in data set [2] and in data set [3] were 398 nM, 5.01 nM and 10000 nM, respectively. The same compound yielded a logD in data set [4] of 4.8.

`CNC(=O)c1sc(N2CC3CC2(CNC(=O)c2c[nH]c4ncc(Cl)cc24)C3)nc1C(F)(F)F`: the IC50 in data set [1] is 10 nM; in data set [2] it was 25.1 nM; in data set [3] it was 631 nM. This compound displayed a logD in data set [4] of 4.

For `O=S(=O)(c1ccc(Nc2ncc(N3CCOCC3)c(Nc3ccccc3)n2)cc1)N1CCCCC1`, the IC50 is 200 nM in data set [1], 50.1 nM in data set [2] and 6310 nM in data set [3]. Further, in data set [4], the logD was found to be 4.5.

For `COc1cc2ncnc(Nc3cnc(OCCC4CC4)nc3)c2cc1OCC1CCNCC1`, the IC50 in data set [1] was 3160 nM; in data set [2], 251 nM; in data set [3] it was 2000 nM. In data set [4], this compound came in with a log distribution coefficient (logD) of 1.4.

As for `CNC(=O)c1sc(N2CC3CC2(CNC(=O)c2c[nH]c4ncccc24)C3)nc1C(F)(F)F`, the 50% inhibitory concentration (IC50) is 10 nM in data set [1], 25.1 nM in data set [2] and 2000 nM in data set [3]. The same compound registered a log distribution coefficient (logD) in data set [4] of 3.1.

As for `C[C@@H]1CN(c2cnc(Nc3cc(F)c(OCC4CC4)c(F)c3)nc2NC2CCOCC2)CCN1`, the half-maximal inhibitory concentration (IC50) in data set [1] was 1580 nM; in data set [2] it was 50.1 nM; in data set [3], 251 nM. In data set [4], this compound displayed a logD of 3.2.

Turning to `CCn1c(-c2nnc(N(C)Cc3ccc4nccn4c3)o2)nc2ccccc21`, the IC50 was 39800 nM in data set [1], 631 nM in data set [2] and 39800 nM in data set [3]. The compound further yielded a logD in data set [4] of 3.

On to `CNC(=O)c1sc(N2CC3CC2(CNC(=O)c2c[nH]c4ncc(C(F)(F)F)cc24)C3)nc1C(F)(F)F`, for which the values for the IC50 in data set [1], in data set [2] and in data set [3] were 25.1 nM, 63.1 nM and over 100000 nM, respectively. This compound also gave a log distribution coefficient (logD) in data set [4] of 4.2.

Turning to `CN(Cc1ccc2nccn2c1)c1nnc(-c2ncc(C(F)(F)F)cc2Cl)o1`, the concentration for half-maximal inhibition (IC50) was over 100000 nM in data set [1], 794 nM in data set [2] and over 100000 nM in data set [3]. Also, the logD in data set [4] came out at 2.6.

With `Cc1cc(N(C)C)ccc1-c1nnc(N(C)Cc2ccc3nccn3c2)o1`, the IC50 is 15800 nM in data set [1], 631 nM in data set [2] and over 100000 nM in data set [3]. Moreover, the log distribution coefficient (logD) in data set [4] amounted to 3.2.

For `Cc1c(C(=O)Nc2ccc(Oc3ccnc4[nH]cc(-c5ccccc5)c34)c(F)c2)c(=O)n(-c2ccc(F)cc2)n1C`, the results for the IC50 in data set [1], in data set [2] and in data set [3] were 3.16 nM, 1.58 nM and 10 nM, respectively. For the same compound, in data set [4], the logD was over 5.

For `CNC(=O)C[C@@H](NC(=O)[C@@H](CCc1ccccc1)NC(=O)c1c(C)noc1-c1snnc1C)c1ccc(C(F)(F)F)cc1`, the IC50 in data set [1] is 15.8 nM; in data set [2] it was 5.01 nM; in data set [3], 31.6 nM. The compound further had a pH-dependent lipophilicity (logD) in data set [4] of 4.2.

Regarding `CNc1nc(OCC2CCC2)nc2c1ncn2Cc1c(F)cccc1F`, the values for the IC50 in data set [1], in data set [2] and in data set [3] were 1580 nM, 50.1 nM and 3160 nM, respectively. Further, in data set [4], the logD worked out at 4.4.
